From patent publication US10730874B2 (Shire Human Genetic Therapies, Inc., priority 2018, dated 2020)
Where two headings read alike, the source gives them in different places.

Target: human activated kallikrein enzyme (plasma kallikrein) (Homo sapiens (Human), UniProt P03952)
Assay: Inhibition of human activated plasma kallikrein, fluorogenic peptide substrate assay, 500 pM enzyme format
Assay type: biochemical
Procedure: Example compounds were evaluated for inhibition of the human activated kallikrein enzyme in two formats of an assay employing a fluorogenic peptide substrate. In one assay format, the concentrations of reagents were as follows: 20 mM Tris pH 7.5, 1 mM EDTA, 150 mM sodium chloride, 0.1% PEG-400, 0.1% Triton X-100, 500 pM activated kallikrein enzyme, 300 uM Pro-Phe-Arg-7-amido-4-methylcoumarin substrate. Prior to reaction initiation with substrate, enzyme and inhibitors were preincubated for 30 min at RT. After initiation with substrate, reactions were incubated for 10 min at RT and fluorescence emission at 460 nm from 380 nm excitation measured with a microplate reader. In another assay format, the concentrations of reagents were as follows: 20 mM Tris pH 7.5, 1 mM EDTA, 150 mM sodium chloride, 0.1% PEG-400, 0.1% Triton X-100, 5 pM activated kallikrein enzyme, 300 uM Pro-Phe-Arg-7-amido-4-methylcoumarin substrate. Prior to reaction initiation with substrate, enzyme and inhibitors were preincubated for 30 min at RT. After initiation with substrate, reactions were incubated for 18 h at RT and fluorescence emission at 460 nm from 380 nm excitation measured with a microplate reader.

[1] = 500 pM activated kallikrein enzyme, 300 uM Pro-Phe-Arg-7-amido-4-methylcoumarin substrate, 30 min preincubation, 10 min at RT, read-out: Primary Dose Response Assay: Average EC50

Sequence of human activated kallikrein enzyme (plasma kallikrein) (P03952 391-638): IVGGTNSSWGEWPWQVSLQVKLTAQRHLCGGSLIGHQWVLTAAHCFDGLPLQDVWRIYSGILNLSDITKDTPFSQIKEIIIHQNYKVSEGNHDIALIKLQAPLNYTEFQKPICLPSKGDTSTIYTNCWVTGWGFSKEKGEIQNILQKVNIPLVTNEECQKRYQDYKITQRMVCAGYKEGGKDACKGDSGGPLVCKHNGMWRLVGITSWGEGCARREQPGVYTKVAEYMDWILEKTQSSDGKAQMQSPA
Sequence of human activated kallikrein enzyme (plasma kallikrein) (P03952 20-390 partner): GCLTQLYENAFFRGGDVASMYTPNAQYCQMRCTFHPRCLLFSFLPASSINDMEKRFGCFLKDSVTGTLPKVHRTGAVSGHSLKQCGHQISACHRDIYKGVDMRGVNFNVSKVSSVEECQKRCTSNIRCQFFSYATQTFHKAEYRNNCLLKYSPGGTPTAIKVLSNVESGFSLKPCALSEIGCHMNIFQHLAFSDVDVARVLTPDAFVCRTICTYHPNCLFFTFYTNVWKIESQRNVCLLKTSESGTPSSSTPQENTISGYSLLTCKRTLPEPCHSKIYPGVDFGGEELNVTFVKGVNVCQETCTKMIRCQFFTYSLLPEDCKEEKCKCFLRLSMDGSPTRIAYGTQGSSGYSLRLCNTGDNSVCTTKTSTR

| Structure (SMILES) | EC50 [1] [nM] | EC50 [nM] |
| --- | --- | --- |
| O=C(NCc1ncn2ccc(Cl)cc12)c1cnn(Cc2cn3cccc(C4(CO)CC4)c3n2)c1 [Example I-117, N-((7-chloroimidazo[1,5-a]pyridin-1-yl)methyl)-1-((8-(1-(hydroxymethyl)cyclopropyl)imidazo[1,2-a]pyridin-2-yl)methyl)-1H-pyrazole-4-carboxamide] | < 1 |  |
| N#Cc1cc(Cn2cc(C(=O)NCc3ncn4ccc(Cl)c(F)c34)nn2)cc2cc(C3CC3)cnc12 [Example I-273, N-((7-chloro-8-fluoroimidazo[1,5-a]pyridin-1-yl)methyl)-1-((8-cyano-3-cyclopropylquinolin-6-yl)methyl)-1H-1,2,3-triazole-4-carboxamide] | 1 to 10 |  |
| Cc1nncn1-c1cc(C2CC2)cn2cc(Cn3cc(C(=O)NCc4ncn5ccc(Cl)c(F)c45)nn3)nc12 [Example I-249, N-((7-chloro-8-fluoroimidazo[1,5-a]pyridin-1-yl)methyl)-1-((6-cyclopropyl-8-(3-methyl-4H-1,2,4-triazol-4-yl)imidazo[1,2-a]pyridin-2-yl)methyl)-1H-1,2,3-triazole-4-carboxamide] | < 1 |  |
| O=C(NCc1ncn2ccc(Cl)c(F)c12)c1cn(Cc2cc3ccc(Cl)cc3o2)nn1 [Example I-197, N-((7-chloro-8-fluoroimidazo[1,5-a]pyridin-1-yl)methyl)-1-((6-chlorobenzofuran-2-yl)methyl)-1H-1,2,3-triazole-4-carboxamide] | 100 to 2000 |  |
| O=C(NCc1ncn2ccc(Cl)cc12)c1cnc(Cc2cn3cc(C4CC4)ccc3n2)s1 [Example I-38, N-((7-chloroimidazo[1,5-a]pyridin-1-yl)methyl)-2-((6-cyclopropylimidazo[1,2-a]pyridin-2-yl)methyl)thiazole-5-carboxamide] | 1 to 10 |  |
| O=C(NCc1ncn2ccc(Cl)c(F)c12)c1cn(Cc2cn3cc(C4CC4)cc(C(=O)O)c3n2)nn1 [Example I-166b, 2-((4-(((7-chloro-8-fluoroimidazo[1,5-a]pyridin-1-yl)methyl)carbamoyl)-1H-1,2,3-triazol-1-yl)methyl)-6-cyclopropylimidazo[1,2-a]pyridine-8-carboxylic acid] | < 1 |  |
| N#Cc1cc(C2CC2)cn2cc(Cn3cc(C(=O)NCc4ncn5ccc(Cl)cc45)nn3)nc12 [Example I-112, N-((7-chloroimidazo[1,5-a]pyridin-1-yl)methyl)-1-((8-cyano-6-cyclopropylimidazo[1,2-a]pyridin-2-yl)methyl)-1H-1,2,3-triazole-4-carboxamide] | < 1 |  |
| O=C(NCc1ncn2ccc(Cl)cc12)c1cnn(Cc2cn3ccccc3n2)c1 [Example I-69, N-((7-chloroimidazo[1,5-a]pyridin-1-yl)methyl)-1-(imidazo[1,2-a]pyridin-2-ylmethyl)-1H-pyrazole-4-carboxamide] | 100 to 2000 |  |
| O=C(NCc1ncn2ccc(Br)c(F)c12)c1cn(Cc2cn3c(F)c(C4CC4)ccc3n2)nn1 [Example I-145, N-((7-bromo-8-fluoroimidazo[1,5-a]pyridin-1-yl)methyl)-1-((6-cyclopropyl-5-fluoroimidazo[1,2-a]pyridin-2-yl)methyl)-1H-1,2,3-triazole-4-carboxamide] | < 1 |  |
| O=C(NCc1ncn2ccc(Cl)c(F)c12)c1cn(Cc2nc3ccccn3n2)nn1 [Example I-287, 1-([1,2,4]triazolo[1,5-a]pyridin-2-ylmethyl)-N-((7-chloro-8-fluoroimidazo[1,5-a]pyridin-1-yl)methyl)-1H-1,2,3-triazole-4-carboxamide] | 100 to 2000 |  |
| N#Cc1cc(C2CC2)cn2cc(Cn3cc(C(=O)NCc4ncn5ccc(Cl)c(F)c45)nn3)nc12 [Example I-149, N-((7-chloro-8-fluoroimidazo[1,5-a]pyridin-1-yl)methyl)-1-((8-cyano-6-cyclopropylimidazo[1,2-a]pyridin-2-yl)methyl)-1H-1,2,3-triazole-4-carboxamide] | < 1 |  |
| Cc1ccc2nc(Cn3cc(C(=O)NCc4ncn5ccc(Cl)c(C)c45)cn3)cn2c1 [Example I-35, N-((7-chloro-8-methylimidazo[1,5-a]pyridin-1-yl)methyl)-1-((6-methylimidazo[1,2-a]pyridin-2-yl)methyl)-1H-pyrazole-4-carboxamide] | 100 to 2000 |  |
| COC(=O)c1c(Cn2cc(C(=O)NCc3ncn4ccc(Cl)c(F)c34)nn2)[nH]c2cc(C3CC3)ccc12 [Example I-272, methyl 2-((4-(((7-chloro-8-fluoroimidazo[1,5-a]pyridin-1-yl)methyl)carbamoyl)-1H-1,2,3-triazol-1-yl)methyl)-6-cyclopropyl-1H-indole-3-carboxylate] | < 1 |  |
| Cc1c(C2CC2)ccc2nc(Cn3cc(C(=O)NCc4ncn5ccc(Cl)cc45)cn3)cn12 [Example I-13, N-((7-chloroimidazo[1,5-a]pyridin-1-yl)methyl)-1-((6-cyclopropyl-5-methylimidazo[1,2-a]pyridin-2-yl)methyl)-1H-pyrazole-4-carboxamide] | < 1 |  |
| O=C(NCc1ncn2ccc(Cl)c(F)c12)c1cn(Cc2cn3nc(C4CC4)cc(N4CCC(C(=O)O)C4)c3n2)nn1 (stereo not shown) [Example I-267, 1-(2-((4-(((7-chloro-8-fluoroimidazo[1,5-a]pyridin-1-yl)methyl)carbamoyl)-1H-1,2,3-triazol-1-yl)methyl)-6-cyclopropylimidazo[1,2-b]pyridazin-8-yl)pyrrolidine-3-carboxylic acid] | < 1 |  |
| O=C(O)CC(c1cn2cc(C3CC3)ccc2n1)n1cc(C(=O)NCc2ncn3ccc(Cl)c(F)c23)nn1 (stereo not shown) [Example I-227b, 3-(4-(((7-chloro-8-fluoroimidazo[1,5-a]pyridin-1-yl)methyl)carbamoyl)-1H-1,2,3-triazol-1-yl)-3-(6-cyclopropylimidazo[1,2-a]pyridin-2-yl)propanoic acid] | 100 to 2000 |  |
| O=C(NCc1ncn2ccc(Cl)c(F)c12)c1cn(Cc2cn3cc(C4CC4)cc(CC4COC4)c3n2)nn1 [Example I-186, N-((7-chloro-8-fluoroimidazo[1,5-a]pyridin-1-yl)methyl)-1-((6-cyclopropyl-8-(oxetan-3-ylmethyl)imidazo[1,2-a]pyridin-2-yl)methyl)-1H-1,2,3-triazole-4-carboxamide] | < 1 |  |
| CCOC(=O)c1cc(C2CC2)cn2cc(Cn3cc(C(=O)NCc4ncn5ccc(Cl)c(F)c45)nn3)nc12 [Example I-166a, ethyl 2-((4-(((7-chloro-8-fluoroimidazo[1,5-a]pyridin-1-yl)methyl)carbamoyl)-1H-1,2,3-triazol-1-yl)methyl)-6-cyclopropylimidazo[1,2-a]pyridine-8-carboxylate] | < 1 |  |
| [2H]C([2H])(NC(=O)c1cnn(Cc2cn3cc(C4CC4)ccc3n2)c1)c1ncn2ccc(Cl)cc12 [Example I-90, N-((7-chloroimidazo[1,5-a]pyridin-1-yl)methyl-d2)-1-((6-cyclopropylimidazo[1,2-a]pyridin-2-yl)methyl)-1H-pyrazole-4-carboxamide] | < 1 |  |
| O=C(NCc1ncn2ccc(Cl)c(F)c12)c1cn(Cc2nc3ccc(C4CC4)cc3s2)nn1 [Example I-252, N-((7-chloro-8-fluoroimidazo[1,5-a]pyridin-1-yl)methyl)-1-((6-cyclopropylbenzo[d]thiazol-2-yl)methyl)-1H-1,2,3-triazole-4-carboxamide] | 10 to 100 |  |
| O=C(NCc1ncn2ccc(Cl)cc12)c1cnn(Cc2cn3c(Cl)c(Br)ccc3n2)c1 [Example I-39, 1-((6-bromo-5-chloroimidazo[1,2-a]pyridin-2-yl)methyl)-N-((7-chloroimidazo[1,5-a]pyridin-1-yl)methyl)-1H-pyrazole-4-carboxamide] | 1 to 10 |  |
| O=C(NCc1ncn2ccc(Cl)cc12)c1cnn(Cc2cn3cc(C4CC4)c(F)cc3n2)c1 [Example I-21, N-((7-chloroimidazo[1,5-a]pyridin-1-yl)methyl)-1-((6-cyclopropyl-7-fluoroimidazo[1,2-a]pyridin-2-yl)methyl)-1H-pyrazole-4-carboxamide] | 1 to 10 |  |
| O=C(NCc1ncn2ccc(Cl)c(F)c12)c1cn(Cc2cn3cc(C4CC4)cc(-c4cnoc4)c3n2)nn1 [Example I-225, N-((7-chloro-8-fluoroimidazo[1,5-a]pyridin-1-yl)methyl)-1-((6-cyclopropyl-8-(isoxazol-4-yl)imidazo[1,2-a]pyridin-2-yl)methyl)-1H-1,2,3-triazole-4-carboxamide] | < 1 |  |
| O=C(NCc1ncn2ccc(Br)cc12)c1cn(Cc2cn3cc(C4CC4)ccc3n2)c2cccnc12 [Example I-30, N-((7-bromoimidazo[1,5-a]pyridin-1-yl)methyl)-1-((6-cyclopropylimidazo[1,2-a]pyridin-2-yl)methyl)-1H-pyrrolo[3,2-b]pyridine-3-carboxamide] |  | 1 to 10 |
| O=C(NCc1ncn2ccc(Cl)c(F)c12)c1cn(Cc2cn3cc(C4CC4)cc(CNCC(O)C(F)(F)F)c3n2)nn1 (stereo not shown) [Example I-300, N-((7-chloro-8-fluoroimidazo[1,5-a]pyridin-1-yl)methyl)-1-((6-cyclopropyl-8-(((3,3,3-trifluoro-2-hydroxypropyl)amino)methyl)imidazo[1,2-a]pyridin-2-yl)methyl)-1H-1,2,3-triazole-4-carboxamide] | < 1 |  |
